Data from ChEMBL document CHEMBL1126797 (J Med Chem, 1993).

Key:
DNA topoisomerase 1 [1] = target: T1, DNA topoisomerase 1 (Homo sapiens, UniProt P11387); test: Inhibition of Topoisomerase I by cleavage complex formation in human HL-60 cells; type: cell-based
T1 sequence (P11387 whole entry): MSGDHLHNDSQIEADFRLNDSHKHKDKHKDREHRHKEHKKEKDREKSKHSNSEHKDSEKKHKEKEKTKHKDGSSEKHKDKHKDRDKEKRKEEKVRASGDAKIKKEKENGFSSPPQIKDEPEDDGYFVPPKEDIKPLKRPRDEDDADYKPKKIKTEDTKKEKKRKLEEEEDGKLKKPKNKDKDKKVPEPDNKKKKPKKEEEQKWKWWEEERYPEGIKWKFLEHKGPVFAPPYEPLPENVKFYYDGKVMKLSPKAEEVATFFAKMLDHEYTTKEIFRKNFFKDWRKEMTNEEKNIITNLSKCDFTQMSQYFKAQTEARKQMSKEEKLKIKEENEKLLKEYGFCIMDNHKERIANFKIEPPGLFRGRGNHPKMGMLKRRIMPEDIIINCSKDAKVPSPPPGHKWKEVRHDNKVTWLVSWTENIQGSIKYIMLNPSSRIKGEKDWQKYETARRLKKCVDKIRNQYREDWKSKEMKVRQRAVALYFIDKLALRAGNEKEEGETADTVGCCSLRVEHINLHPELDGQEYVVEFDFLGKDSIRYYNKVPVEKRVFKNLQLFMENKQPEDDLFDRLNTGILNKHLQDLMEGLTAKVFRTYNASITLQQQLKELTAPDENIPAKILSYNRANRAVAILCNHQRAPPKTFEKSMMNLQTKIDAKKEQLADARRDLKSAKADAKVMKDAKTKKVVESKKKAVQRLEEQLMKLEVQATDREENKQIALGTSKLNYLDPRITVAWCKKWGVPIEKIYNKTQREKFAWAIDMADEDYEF

L1210 [2] = test: Log of initial tumor cell population minus log of tumor cell population at end of treatment after ip injection on days 1 and 5; type: functional, Mus musculus
L1210 [3] = test: Log of initial tumor cell population minus log of tumor cell population at end of treatment after iv drug dosing on hours 1 and 5; type: functional, Mus musculus
L1210 [4] = test: Toxic dose in L1210 murine lymphoid leukemia after ip injection on days 1 and 5 at 10 mg/kg; NT means not toxic; type: toxicity, organism-based; set-up: dose 10 mg/kg, route intraperitoneal; conditions: mouse, in vivo
L1210 [5] = test: Toxic dose in L1210 murine lymphoid leukemia after iv drug dosing on hours 1 and 5; NT means not toxic at 5 mg/Kg; type: toxicity, organism-based; conditions: mouse, in vivo
DNA topoisomerase 1 [6] = target: T1, DNA topoisomerase 1; test: Inhibition of Topoisomerase I by cleavage complex formation in intact human HL-60 cells; type: cell-based
Mus musculus [7] = test: Highest active dose in L1210 lymphoid leukemic mice after ip injection on days 1 and 5 at dose of 10 mg/kg; type: functional; conditions: route intraperitoneal
Mus musculus [8] = test: Highest active dose in L1210 lymphoid leukemic mice after iv drug dosing on hours 1 and 5 at dose range of 2.5-5 mg/kg; type: functional
Mus musculus [9] = test: Median survival time of treated/control animals x 100 after ip injection on days 1 and 5; type: functional
Mus musculus [10] = test: Median survival time of treated/control animals x 100 after iv drug dosing on hours 1 and 5; type: functional
L1210 [11] = test: Log of initial tumor cell population minus log of tumor cell population at end of treatment after i.v. drug dosing on hours 1 and 5; type: functional, Mus musculus
L1210 [12] = test: Toxic dose in L1210 murine lymphoid leukemia at 20 mg/kg after i.v. drug dosing on hours 1 and 5; NT means not toxic; type: toxicity, organism-based; set-up: dose 20 mg/kg, route intravenous; conditions: mouse, in vivo, iv
Mus musculus [13] = test: Highest active dose in L1210 lymphoid leukemic mice at range of 1.25-20 mg/kg after i.v. drug dosing on hours 1 and 5; type: functional
Mus musculus [14] = test: Number of L1210 mice cured after i.v. drug dosing on hours 1 and 5; type: functional
Mus musculus [15] = organism: Mus musculus; test: Percent median survival time of treated leukemic mice compared to control; type: functional
[16] = Number of metastases in K1735-M2 murine melanoma cells after subcutaneous administration on days1,4,6,8 at dose of 6 mg/kg; type: functional, Mus musculus
L1210 [17] = test: Relative survival in L1210 murine lymphoid leukemia cells after subcutaneous administration on days1,4,6,8 at dose of 6 mg/kg; type: functional, Mus musculus
L1210 [18] = test: Toxic dose in L1210 murine lymphoid leukemia at dose of 20 mg/kg; NT means not toxic; type: toxicity, organism-based; set-up: dose 20 mg/kg; conditions: mouse, in vivo
Mus musculus [19] = test: Highest active dose in L1210 lymphoid leukemic mice after i.v. drug dosing on hours 1 and 5 at dose range of 2.85-10 mg/kg; type: functional
Mus musculus [20] = test: Relative survival in RAW117-H10 cells implanted mice in comparison to control at dose of 6 mg/kg; type: functional
Mus musculus [21] = test: Median survival time of treated/control animals x 100 after i.v. drug dosing on hours 1 and 5; type: functional
[22] = Number of metastases in K1735-M2 murine melanoma cells after subcutaneous administration on days1,4,6,8 at dose of 3 mg/kg; type: functional, Mus musculus
Mus musculus [23] = test: Relative survival in L1210 lymphoid leukemic mice after subcutaneous administration on days 1,4,6,8 at dose of 3 mg/kg; type: functional
Mus musculus [24] = test: Relative survival in RAW117-H10 cells implanted mice in comparison to control at dose of 3 mg/kg; type: functional
HT-29 = test: Tumor volume in HT-29 cells after subcutaneous administration on days 16,20,23,27,30,34,37,41,44,48 at dose of 2.5 mg/kg; type: functional, Homo sapiens
[25] = Number of metastases in K1735-M2 murine melanoma cells after subcutaneous administration at dose of 2.5 mg/kg; type: functional, Mus musculus
L1210 [26] = test: Log of initial tumor cell population minus log of tumor cell population at end of treatment in L1210 lymphoid leukemic mice; type: functional, Mus musculus
Mus musculus [27] = organism: Mus musculus; test: Toxic dose in L1210 lymphoid leukemic mice; type: toxicity, organism-based; conditions: in vivo
Mus musculus [28] = test: Highest active dose in L1210 lymphoid leukemic mice at dose range of 0.6-5 mg/kg; type: functional
Mus musculus [29] = organism: Mus musculus; test: Number of L1210 lymphoid leukemic mice cured out of […]; type: functional
Mus musculus [30] = test: Relative survival in L1210 lymphoid leukemic mice after subcutaneous administration on days 1,4,6,8 at dose of 4 mg/kg; type: functional
Mus musculus [31] = test: Relative survival in RAW117-H10 cells implanted mice in comparison to control at dose of 2.5 mg/kg; type: functional

CCC1(O)C(=O)OCc2c1cc1n(c2=O)Cc2cc3cc(C(=O)O)ccc3nc2-1 (configuration not stated)
IC50 (DNA topoisomerase 1 [1]): 1000 nM

CCC(O)(C(=O)O)c1cc2n(c(=O)c1CO)Cc1cc3c(N)cccc3nc1-2 (racemic)
IC50 (DNA topoisomerase 1 [1]): 13000 nM

CCC1(O)C(=O)OCc2c1cc1n(c2=O)Cc2cc3c4c(ccc3nc2-1)OCO4 (racemic)
IC50 (DNA topoisomerase 1 [1]): 3800 nM

CCC1(O)C(=O)OCc2c1cc1n(c2=O)Cc2cc3c([N+](=O)[O-])c4c(cc3nc2-1)OCO4 (racemic)
IC50 (DNA topoisomerase 1 [1]): 220 nM

O=C1OCc2c(cc3n(c2=O)Cc2cc4ccccc4nc2-3)C1(O)CCO (racemic)
IC50 (DNA topoisomerase 1 [1]): 9600 nM

CCC1(OC(=O)CN)C(=O)OCc2c1cc1n(c2=O)Cc2cc3c(N)cccc3nc2-1.Cl (racemic)
KE (L1210 [2]): -1
KE (L1210 [3]): 1.67
Toxic dose (L1210 [4]): Non-toxic
Toxic dose (L1210 [5]): Not toxic
IC50 (DNA topoisomerase 1 [6]): 6800 nM
Highest active dose (Mus musculus [7]): 10 mg/kg
Highest active dose (Mus musculus [8]): 5 mg/kg
T/C (Mus musculus [9]): 132%
T/C (Mus musculus [10]): 168%
IC50 (DNA topoisomerase 1 [1]): 5500 nM

CCC1(O)C(=O)OCc2c1cc1n(c2=O)Cc2cc3c(NC(=O)CN)c4c(cc3nc2-1)OCO4 (racemic)
IC50 (DNA topoisomerase 1 [6]): > 30000 nM
IC50 (DNA topoisomerase 1 [1]): 260 nM

CCC1(OC(=O)CN)C(=O)OCc2c1cc1n(c2=O)Cc2cc3cc(N)ccc3nc2-1.Cl (racemic)
KE (L1210 [11]): >5.97
Toxic dose (L1210 [12]): Non-toxic
Highest active dose (Mus musculus [13]): 20 mg/kg
Cures (Mus musculus [14]): 0
T/C (Mus musculus [15]): 225%

CCC1(O)C(=O)OCc2c1cc1n(c2=O)Cc2cc3c(N)c(Br)cc(Br)c3nc2-1 (racemic)
IC50 (DNA topoisomerase 1 [1]): > 30000 nM

CCC(O)(C(=O)O)c1cc2n(c(=O)c1CO)Cc1cc3ccccc3nc1-2 (racemic)
IC50 (DNA topoisomerase 1 [1]): 2000 nM

CCC1(O)C(=O)OCc2c1cc1n(c2=O)Cc2cc3cc4c(cc3nc2-1)OCCO4 (racemic)
IC50 (DNA topoisomerase 1 [1]): 470 nM

CCC1(O)C(=O)OCc2c1cc1n(c2=O)Cc2cccnc2-1 (racemic)
IC50 (DNA topoisomerase 1 [1]): > 30000 nM

CCC(O)(C(=O)[O-])c1cc2n(c(=O)c1CO)Cc1cc3cc4c(cc3nc1-2)OCO4.[Na+] (racemic)
Control [16]: 4%
KE (L1210 [11]): 4.79
T/C (L1210 [17]): 2.13
Toxic dose (L1210 [18]): Non-toxic
Highest active dose (Mus musculus [19]): 10 mg/kg
T/C (Mus musculus [20]): 1.32
Cures (Mus musculus [14]): 0
T/C (Mus musculus [21]): 157%
IC50 (DNA topoisomerase 1 [1]): 550 nM

CCC1(O)C(=O)OCc2c1cc1n(c2=O)Cc2cc3c(N)c4c(cc3nc2-1)OCO4 (racemic)
Control [22]: 25%
IC50 (DNA topoisomerase 1 [6]): 69 nM
T/C (Mus musculus [23]): 3
T/C (Mus musculus [24]): 1.6
IC50 (DNA topoisomerase 1 [1]): 76 nM

CC1(O)C(=O)OCc2c1cc1n(c2=O)Cc2cc3ccccc3nc2-1 (racemic)
IC50 (DNA topoisomerase 1 [1]): 4000 nM

CCC1(O)C(=O)OCc2c1cc1n(c2=O)Cc2cc3c(Cl)cccc3nc2-1 (racemic)
IC50 (DNA topoisomerase 1 [1]): 190 nM

O=C1OCc2c(cc3n(c2=O)Cc2cc4ccccc4nc2-3)C1(O)CCBr (racemic)
IC50 (DNA topoisomerase 1 [1]): 3100 nM

CCC1(O)C(=O)OCc2c1cc1n(c2=O)Cc2cc3c(OC)cccc3nc2-1 (racemic)
IC50 (DNA topoisomerase 1 [1]): 1600 nM

CCC1(O)C(=O)OCc2c1cc1n(c2=O)Cc2cc3c(N)cccc3nc2-1 (racemic) [RS-9-Aminocamptothecin]
IC50 (DNA topoisomerase 1 [6]): 840 nM
IC50 (DNA topoisomerase 1 [1]): 440 nM

CC[C@@]1(O)C(=O)OCc2c1cc1n(c2=O)Cc2cc3c(N)cccc3nc2-1 [9-AMINOCAMPTOTHECIN]
Control (HT-29): 25%
Control [25]: 73%
KE (L1210 [26]): 5.97
Toxic dose (Mus musculus [27]): 10 mg/kg
Highest active dose (Mus musculus [28]): 0.6 mg/kg
Cures (Mus musculus [29]): 3
T/C (Mus musculus [15]): 361%
T/C (Mus musculus [30]): 2.44
T/C (Mus musculus [31]): 1.15
IC50 (DNA topoisomerase 1 [1]): 110 nM

CC[C@@]1(O)C(=O)OCc2c1cc1n(c2=O)Cc2cc3cc(O)ccc3nc2-1 [HYDROXYCAMPTOTHECIN]
IC50 (DNA topoisomerase 1 [1]): 110 nM
